ChEMBL document CHEMBL1136432, “Discovery of potent imidazole and cyanophenyl containing farnesyltransferase inhibitors with improved oral bioavailability” (Bioorg Med Chem Lett, 2003)

Experiments:
[1] = target: T1, Protein farnesyltransferase (Bos taurus, UniProt P29702+P49355); assay: Inhibition of transfer of [3H]FPP to biotin K-ras peptide (KKSKTKCVIM) catalyzed by bovine FTase; type: protein-complex assay
NIH3T3 = assay: Concentration needed to reduce 50% of farnesylation in NIH3T3 H-ras cell line; type: functional, cell-based; conditions: Mus musculus
[2] = Oral bioavailability in monkey; conditions: cercopithecidae, in vivo
in vivo = conditions: dog, po, 5 mg/kg
Description: Oral bioavailability in dog (dose 5 mg/kg)

[3] = target: T1, Protein farnesyltransferase; assay: Inhibition of [3H]FPP transfer to biotin K-ras peptide (KKSKTKCVIM) by bovine FTase; type: protein-complex assay
[4] = target: Geranylgeranyl transferase type I (Bos taurus, UniProt P29702+Q5EAD5); assay: Inhibition of [3H]FPP transfer to biotin K-ras peptide (KKSKTKCVLL) catalyzed by bovine GGTase-I
[5] = Half life in dog at the single oral dose of 1 mg/kg; type: ADME, organism-based, Canis lupus familiaris; parameters: dose 1 mg/kg, route oral; conditions: in vivo
[6] = Pharmacokinetic (PK) property (AUC) was determined in dog at the single oral dose of 1 mg/kg; type: ADME, organism-based, Canis lupus familiaris; parameters: dose 1 mg/kg, route oral; conditions: in vivo
[7] = Pharmacokinetic (PK) property (Tmax) was determined in dog at the single dose of 1 mg/kg; type: ADME, organism-based, Canis lupus familiaris; parameters: dose 1 mg/kg; conditions: in vivo
[8] = Pharmacokinetic (PK) property (Cmax) was determined in dog at the single dose of 1 mg/kg; type: ADME, organism-based, Canis lupus familiaris; parameters: dose 1 mg/kg; conditions: in vivo

SMILES | IC50 [1] | EC50 (NIH3T3) | further results
Cn1cncc1C(OCc1ccc(C#N)cc1-c1cccc2ccccc12)c1ccc(C#N)nc1 (stereo unspecified) | 1.7 nM | 46 nM | 
Cn1cncc1C(OCc1nc(Cl)c(C#N)cc1-c1cccc(Cl)c1)c1ccc(C#N)cc1 (stereo unspecified) |  | 29 nM | 
Cn1cncc1C(OCc1ccc(C#N)cc1-c1ccc2c(c1)OCO2)c1ccc(C#N)nc1 (stereo unspecified) | 0.84 nM | 3.5 nM | 
Cn1cncc1C(OCc1nc(N2CCC(C(N)=O)CC2)c(C#N)cc1-c1cccc(Cl)c1)c1ccc(C#N)cc1 (stereo unspecified) | 0.73 nM | 1.5 nM | 
Cn1cncc1C(OCc1ccc(C#N)cc1-c1cc(Cl)cc(Cl)c1)c1ccc(C#N)nc1 (stereo unspecified) | 0.64 nM | 3.5 nM | 
Cn1cncc1C(OCc1ccc(C#N)nc1N1CCOCC1)c1ccc(C#N)cc1 (stereo unspecified) | 1.9 nM | 88 nM | 
Cn1cncc1C(OCc1ccc(C#N)cc1)c1ccc(C#N)c(-c2cccc3cccnc23)c1 (stereo unspecified) | 2 nM | 3.7 nM | bioavailability [2]: 92%; bioavailability (in vivo): 53%
Cn1cncc1C(OCc1ccc(C#N)cc1-c1cccc(OC(F)(F)F)c1)c1ccc(C#N)nc1 (stereo unspecified) | 0.4 nM | 24 nM | 
CN1CCN(c2nc(COC(c3ccc(C#N)cc3)c3cncn3C)ccc2C#N)CC1 (stereo unspecified) | 58 nM |  | 
Cn1cncc1C(OCc1ccc(C#N)nc1-c1ccc(OC(F)(F)F)cc1)c1ccc(C#N)cc1 (stereo unspecified) | 0.51 nM | 4 nM | 
CC(=O)N1CCN(c2nc(COC(c3ccc(C#N)cc3)c3cncn3C)c(-c3cccc(Cl)c3)cc2C#N)CC1 (stereo unspecified) | 0.98 nM | 0.4 nM | 
Cn1cncc1C(OCc1ccc(C#N)cc1-c1cc(F)cc(F)c1)c1ccc(C#N)nc1 (stereo unspecified) | 2 nM | 25 nM | 
Cn1cncc1C(OCc1ccc(C#N)nc1-c1ccc2ccccc2c1)c1ccc(C#N)cc1 (stereo unspecified) | 0.16 nM | 7.4 nM | 
Cn1cncc1C(OCc1ccc(C#N)nc1N1CCN(C(=O)OC(C)(C)C)CC1)c1ccc(C#N)cc1 (stereo unspecified) | 44 nM |  | 
Cn1cncc1C(OCc1ccc(C#N)cc1-c1ccc(F)c(Cl)c1)c1ccc(C#N)nc1 (stereo unspecified) | 1 nM | 46 nM | 
Cn1cncc1C(OCc1ccc(C#N)cc1)c1ccc(C#N)c(-c2cccc3ccccc23)c1 (stereo unspecified) |  | 110 nM | IC50 [3]: 0.2 nM; IC50 [4]: 18 nM
Cn1cncc1C(OCc1nc(N2CCN(C(=O)OC(C)(C)C)CC2)c(C#N)cc1-c1cccc(Cl)c1)c1ccc(C#N)cc1 (stereo unspecified) |  | 4.5 nM | 
Cn1cncc1C(OCc1ccc(C#N)nc1-c1ccc2c(c1)OC(F)(F)O2)c1ccc(C#N)cc1 (stereo unspecified) | 0.18 nM | 1.2 nM | half-life [5]: 7.6 h; AUC [6]: 2800 ng·h/mL; Tmax [7]: 1 h; Cmax [8]: 260 ng/mL
Cn1cncc1C(OCc1ccc(C#N)nc1-c1cc(F)cc(F)c1)c1ccc(C#N)cc1 (stereo unspecified) | 0.71 nM | 2.2 nM | 
COc1cccc(-c2cc(C#N)ccc2COC(c2ccc(C#N)nc2)c2cncn2C)c1 (stereo unspecified) | 0.88 nM | 20 nM | 
Cn1cncc1C(OCc1ccc(C#N)cn1)c1ccc(C#N)c(-c2cccc3ccccc23)c1 (stereo unspecified) | 0.43 nM | 6 nM | 

Further lines, with some results ahead:

IC50 [1] | SMILES | EC50 (NIH3T3) | further results
12 nM | Cn1cncc1C(OCc1ccc(C#N)c(-c2cccc(Cl)c2)n1)c1ccc(C#N)cc1 (stereo unspecified) |  | 
1.8 nM | Cn1cncc1C(OCc1cnc(C#N)cc1-c1cccc(Cl)c1)c1ccc(C#N)cc1 (stereo unspecified) | 17 nM | 
68 nM | Cn1cncc1C(OCc1ccc(C#N)c(-c2cccc(C#N)c2)n1)c1ccc(C#N)cc1 (stereo unspecified) |  | 
0.57 nM | CN1CCN(c2nc(COC(c3ccc(C#N)cc3)c3cncn3C)c(-c3cccc(Cl)c3)cc2C#N)CC1 (stereo unspecified) | 2 nM | 
0.18 nM | Cn1cncc1C(OCc1ccc(C#N)nc1-c1cccc(OC(F)(F)F)c1)c1ccc(C#N)cc1 (stereo unspecified) | 2 nM | 
0.82 nM | Cn1cncc1C(OCc1ccc(C#N)nc1-c1cccc(Cl)c1)c1ccc(C#N)cc1 (stereo unspecified) | 1.8 nM | 
0.75 nM | Cn1cncc1C(OCc1ccc(C#N)cc1-c1cccc(Cl)c1)c1ccc(C#N)nc1 (stereo unspecified) | 2.1 nM | 
0.51 nM | Cn1cncc1C(OCc1nc(N2CCC(O)CC2)c(C#N)cc1-c1cccc(Cl)c1)c1ccc(C#N)cc1 (stereo unspecified) | 3.6 nM | 
8.2 nM | Cn1cncc1C(OCc1ccc(C#N)c(-c2ccc3ccccc3c2)n1)c1ccc(C#N)cc1 (stereo unspecified) |  | 
0.92 nM | Cn1cncc1C(OCc1ncc(C#N)cc1-c1cccc(Cl)c1)c1ccc(C#N)cc1 (stereo unspecified) | 10 nM | 
0.45 nM | Cn1cncc1C(OCc1ccc(C#N)nc1-c1cc(Cl)cc(Cl)c1)c1ccc(C#N)cc1 (stereo unspecified) | 6 nM | 
3.9 nM | Cn1cncc1C(OCc1ccc(C#N)nc1-c1ccccc1)c1ccc(C#N)cc1 (stereo unspecified) | 19 nM | 
25 nM | Cn1cncc1C(OCc1ccc(C#N)c(-c2ccc(Cl)cc2)n1)c1ccc(C#N)cc1 (stereo unspecified) |  | 
0.25 nM | Cn1cncc1C(OCc1nc(N2CCOCC2)c(C#N)cc1-c1cccc(Cl)c1)c1ccc(C#N)cc1 (stereo unspecified) | 1.2 nM | 
0.62 nM | COc1cccc(-c2cc(C#N)ccc2COC(c2ccc(C#N)cc2)c2cncn2C)c1 (stereo unspecified) | 1.2 nM | 
